Molecular target: T1, ΔF508-CFTR (Homo sapiens, UniProt P13569, DEL508-508)
T1 construct: expressed in transfected cells
Assay: Membrane potential optical assay for potentiators of ΔF508-CFTR (FLIPR III, voltage sensing dyes)
Type: cell-based
Conditions: for Emax: NIH3T3, 100% efficacy is the maximum response obtained with 4-methyl-2-(5-phenyl-1H-pyrazol-3-yl)phenol, ΔF508 CFTR NIH 3T3 cells; for EC50: temperature-corrected ΔF508 CFTR NIH 3T3 cells, forskolin activation
Excerpt: The assay utilizes fluorescent voltage sensing dyes to measure changes in membrane potential using a fluorescent plate reader (e.g., FLIPR III, Molecular Devices, Inc.) as a readout for increase in functional ΔF508-CFTR in NIH 3T3 cells.
To identify potentiators of ΔF508-CFTR, a double-addition HTS assay format was developed. This HTS assay utilizes fluorescent voltage sensing dyes to measure changes in membrane potential on the FLIPR III as a measurement for increase in gating (conductance) of ΔF508 CFTR in temperature-corrected ΔF508 CFTR NIH 3T3 cells.
Solutions • Bath Solution #1: (in mM) NaCl 160, KCl 4.5, CaCl2 2, MgCl2 1, HEPES 10, pH 7.4 with NaOH. • Chloride-Free Bath Solution: Chloride Salts in Bath Solution #1 are Substituted with Gluconate Salts.
NIH3T3 mouse fibroblasts stably expressing ΔF508-CFTR are used for optical measurements of membrane potential. The cells are maintained at 37° C. in 5% CO2 and 90% humidity in Dulbecco's modified Eagle's medium supplemented with 2 mM glutamine, 10% fetal bovine serum, 1×NEAA, β-ME, 1×pen/strep, and 25 mM HEPES in 175 cm^2 culture flasks. For all optical assays, the cells were seeded at ˜20,000/well in 384-well matrigel-coated plates and cultured for 2 hrs at 37° C. before culturing at 27° C. for 24 hrs. for the potentiator assay. For the correction assays, the cells are cultured at 27° C. or 37° C. with and without compounds for 16-24 hours. Electrophysiological Assays for assaying ΔF508-CFTR modulation properties of compounds.

T1 sequence (P13569 with tags, fused parts or gaps DEL508-508): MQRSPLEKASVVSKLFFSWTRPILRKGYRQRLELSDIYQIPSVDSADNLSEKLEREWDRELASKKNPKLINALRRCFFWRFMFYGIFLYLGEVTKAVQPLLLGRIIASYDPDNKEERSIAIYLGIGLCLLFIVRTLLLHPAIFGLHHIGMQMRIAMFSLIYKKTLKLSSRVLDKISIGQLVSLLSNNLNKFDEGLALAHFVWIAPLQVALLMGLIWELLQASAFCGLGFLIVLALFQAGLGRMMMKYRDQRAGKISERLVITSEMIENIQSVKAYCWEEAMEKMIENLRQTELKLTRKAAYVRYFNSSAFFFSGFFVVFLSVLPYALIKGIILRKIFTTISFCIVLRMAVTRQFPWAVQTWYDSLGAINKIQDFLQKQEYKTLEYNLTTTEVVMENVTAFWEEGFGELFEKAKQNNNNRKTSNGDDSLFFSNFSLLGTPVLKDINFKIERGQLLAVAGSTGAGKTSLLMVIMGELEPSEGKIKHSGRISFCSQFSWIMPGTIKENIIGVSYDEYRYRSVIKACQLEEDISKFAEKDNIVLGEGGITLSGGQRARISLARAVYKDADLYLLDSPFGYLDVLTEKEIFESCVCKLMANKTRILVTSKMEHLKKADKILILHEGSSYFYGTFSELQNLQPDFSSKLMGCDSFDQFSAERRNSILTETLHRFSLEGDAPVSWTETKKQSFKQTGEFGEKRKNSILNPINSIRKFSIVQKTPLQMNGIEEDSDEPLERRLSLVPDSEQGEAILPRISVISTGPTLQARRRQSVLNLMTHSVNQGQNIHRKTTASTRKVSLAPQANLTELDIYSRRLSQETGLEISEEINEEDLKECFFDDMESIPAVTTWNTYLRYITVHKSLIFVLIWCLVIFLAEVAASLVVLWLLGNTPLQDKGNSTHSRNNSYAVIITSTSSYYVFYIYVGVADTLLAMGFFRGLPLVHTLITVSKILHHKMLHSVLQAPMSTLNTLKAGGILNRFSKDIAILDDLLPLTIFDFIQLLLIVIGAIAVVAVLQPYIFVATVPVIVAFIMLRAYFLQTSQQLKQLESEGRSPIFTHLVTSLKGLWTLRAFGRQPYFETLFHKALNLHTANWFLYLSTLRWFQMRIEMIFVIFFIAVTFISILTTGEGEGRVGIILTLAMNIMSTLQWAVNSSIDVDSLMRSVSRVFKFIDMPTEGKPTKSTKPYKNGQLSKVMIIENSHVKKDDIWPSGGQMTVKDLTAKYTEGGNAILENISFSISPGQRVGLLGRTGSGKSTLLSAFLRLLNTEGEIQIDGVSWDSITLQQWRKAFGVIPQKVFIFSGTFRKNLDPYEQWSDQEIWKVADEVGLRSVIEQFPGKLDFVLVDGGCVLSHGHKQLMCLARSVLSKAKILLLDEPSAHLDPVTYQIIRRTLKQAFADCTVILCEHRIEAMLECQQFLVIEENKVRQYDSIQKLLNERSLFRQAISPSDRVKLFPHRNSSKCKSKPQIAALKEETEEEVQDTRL

| Emax [%] | EC50 [µM] | SMILES |
| --- | --- | --- |
| 25 to 100 | < 5 | O=C(Nc1ccc(OC(F)(F)F)c(O)c1)C1CNc2ccc(F)cc2O1 (centres unmarked) [Compound 47] |
| 25 to 100 | < 5 | Cc1ccc(NC(=O)C2CNc3cc(C)ccc3O2)c(C#CCN(C)C)c1 (centres unmarked) [Compound 48] |
| 25 to 100 | < 5 | CC(C)(C)c1ccc(NC(=O)C2CNc3cc(F)c(F)cc3O2)cc1O (centres unmarked) [Compound 49] |
| 25 to 100 | < 5 | N#Cc1cc(C2CCCC2)c(O)cc1NC(=O)[C@@H]1CNc2ccc(F)cc2O1 [Compound 50] |
| 25 to 100 | 5 to 20 | N#Cc1ccc2c(c1)NCC(C(=O)Nc1cc(O)c(C3CCCC3)cc1CN1CCNCC1)O2 (centres unmarked) [Compound 51, 6-cyano-N-(4-cyclopentyl-5-hydroxy-2-(piperazin-1-ylmethyl)phenyl)-3,4-dihydro-2H-benzo[b][1,4]oxazine-2-carboxamide] |
| 25 to 100 | < 5 | CN1CCN(Cc2cc(C3CCCC3)c(O)cc2NC(=O)C2CNc3ccccc3O2)CC1 (centres unmarked) [Compound 52, N-(4-cyclopentyl-5-hydroxy-2-((4-methylpiperazin-1-yl)methyl)phenyl)-3,4-dihydro-2H-benzo[b][1,4]oxazine-2-carboxamide] |
| 25 to 100 | < 5 | CC(C)CC#Cc1cc(C2CCCC2)c(O)cc1NC(=O)C1CNc2cc(OC(F)(F)F)ccc2O1 (centres unmarked) [Compound 53] |
| 25 to 100 | < 5 | O=C(Nc1cc(O)c(C2CCCC2)cc1C(F)(F)F)[C@@H]1CNc2cc(OC(F)(F)F)ccc2O1 [Compound 54] |
| 25 to 100 | < 5 | Cc1cc(F)c(NC(=O)C2CNc3ccccc3O2)cc1O (centres unmarked) [Compound 55] |
| 25 to 100 | < 5 | O=C(Nc1cc(O)cc(C(F)(F)F)c1)C1CNc2ccccc2O1 (centres unmarked) [Compound 57] |
| > 100 | < 5 | CN(C)CC#Cc1cc(C2CCCC2)c(O)cc1NC(=O)[C@H]1CNc2cc(OC(F)(F)F)ccc2O1 [Compound 58] |
| 25 to 100 | < 5 | CC(C)(C)c1cc(C2CCCC2)c(O)cc1NC(=O)[C@@H]1CNc2cc(C#N)ccc2O1 [Compound 59] |
| 25 to 100 | < 5 | CC(C)c1ccc(NC(=O)C2CNc3cc(Cl)ccc3O2)c(C#CCN(C)C)c1 (centres unmarked) [Compound 60] |
| 25 to 100 | < 5 | O=C(Nc1cc(O)c(C2CCCC2)cc1F)C1CNc2ccc(F)cc2O1 (centres unmarked) [Compound 61] |
| 25 to 100 | < 5 | Cc1ccc(NC(=O)C2CNc3cc(OC(F)(F)F)ccc3O2)c(C#CCN2CCN(C)CC2)c1 (centres unmarked) [Compound 62] |
| 25 to 100 | < 5 | Cc1ccc(NC(=O)C2CNc3cc(OC(F)(F)F)ccc3O2)c(C#CCN2CCNC(=O)C2)c1 (centres unmarked) [Compound 63] |
| 25 to 100 | < 5 | Cc1ccc(NC(=O)C2CNc3cc(OC(F)(F)F)ccc3O2)c(C#CCN2CCC(O)CC2)c1 (centres unmarked) [Compound 64] |
| > 100 | < 5 | CN(C)CC#Cc1cc(C2CCCC2)c(O)cc1NC(=O)[C@@H]1CNc2cc(OC(F)(F)F)ccc2O1 [Compound 65] |
| 25 to 100 | < 5 | CC(C)(C)c1cc(C2CCCC2)c(O)cc1NC(=O)C1CNc2cc(S(C)(=O)=O)ccc2O1 (centres unmarked) [Compound 66] |
| 25 to 100 | < 5 | Cc1ccc(NC(=O)C2CNc3cc(Cl)ccc3O2)c(C#CCN(C)C)c1 (centres unmarked) [Compound 67] |
| 25 to 100 | < 5 | CC1(c2cc(F)c(NC(=O)C3CNc4ccc(F)cc4O3)cc2O)CCCCC1 (centres unmarked) [Compound 68] |
| 25 to 100 | 5 to 20 | Cc1ccc(NC(=O)C2CNc3cc(OC(F)(F)F)ccc3O2)c(C#CCN2CCC(C(=O)O)CC2)c1 (centres unmarked) [Compound 69] |
| 25 to 100 | < 5 | CC(C)(C)c1ccc(NC(=O)C2CNc3ccc(C(F)(F)F)cc3O2)cc1O (centres unmarked) [Compound 70] |
| 25 to 100 | < 5 | Cc1ccc(NC(=O)C2CNc3cc(OC(F)(F)F)ccc3O2)c(C#CCN2CCCCC2)c1 (centres unmarked) [Compound 71] |
| 25 to 100 | < 5 | Cc1cc(C2CCCC2)c(O)cc1NC(=O)C1CNc2cc(S(C)(=O)=O)ccc2O1 (centres unmarked) [Compound 72] |
| 25 to 100 | < 5 | Cc1ccc(NC(=O)C2CNc3cc(OC(F)(F)F)ccc3O2)c(C#CCN2CCCC2)c1 (centres unmarked) [Compound 73] |
| 25 to 100 | < 5 | Cc1cc(C2CCCC2)c(O)cc1NC(=O)C1CNc2cc(C#N)ccc2O1 (centres unmarked) [Compound 74] |

| Emax [%] | EC50 [µM] | SMILES |
| --- | --- | --- |
| > 100 | < 5 | COC(=O)Cc1cc(C2CCCC2)c(O)cc1NC(=O)C1CNc2cc(OC(F)(F)F)ccc2O1 (centres unmarked) [Compound 75] |
| 25 to 100 | < 5 | O=C(Nc1cc(O)c(C2CCCC2)cc1C(F)(F)F)[C@@H]1CNc2cc(F)ccc2O1 [Compound 76] |
| 25 to 100 | < 5 | CC(C)(C)c1ccc(NC(=O)[C@H]2CNc3ccc(F)cc3O2)cc1O [Compound 77] |
| 25 to 100 | < 5 | CC(C)(C)c1ccc(NC(=O)C2CNc3c(F)cccc3O2)cc1O (centres unmarked) [Compound 78] |
| > 100 | < 5 | CN(C)CC#Cc1cc(C2CCCC2)c(O)cc1NC(=O)C1(C)CNc2cc(OC(F)(F)F)ccc2O1 (centres unmarked) [Compound 79] |
| 25 to 100 | < 5 | CC1(c2cc(F)c(NC(=O)[C@H]3CNc4ccccc4O3)cc2O)CCCCC1 [Compound 80] |
| 25 to 100 | 5 to 20 | Cc1ccc(NC(=O)C2CNc3cc(OC(F)(F)F)ccc3O2)c(CCCN(C)C)c1 (centres unmarked) [Compound 81] |
| 25 to 100 | < 5 | COc1cc(NC(=O)C2CNc3ccc(F)cc3O2)c(Cl)cc1C(C)(C)O (centres unmarked) [Compound 82] |
| 25 to 100 | < 5 | CC(C)(C)c1ccc(NC(=O)[C@@H]2CNc3ccc(F)cc3O2)cc1O [Compound 83] |
| 25 to 100 | < 5 | CN(C)CC#Cc1cc(C2CCCC2)c(O)cc1NC(=O)[C@H]1CNc2ccccc2O1 [Compound 84] |
| 25 to 100 | < 5 | CC(C)(C)c1ccc(NC(=O)C2CNc3cccc(C(F)(F)F)c3O2)cc1O (centres unmarked) [Compound 85] |
| 25 to 100 | < 5 | Cc1ccc2c(c1)OC(C(=O)Nc1cc(O)c(C)cc1F)CN2 (centres unmarked) [Compound 86] |
| 25 to 100 | < 5 | CC(C)(C)c1cc(C2CCCC2)c(O)cc1NC(=O)C1CNc2cc(C#N)ccc2O1 (centres unmarked) [Compound 87] |
| 25 to 100 | < 5 | Cc1cc(C2CCCC2)c(O)cc1NC(=O)[C@H]1CNc2cc(C#N)ccc2O1 [Compound 88] |
| 25 to 100 | < 5 | C[C@H]1CCCN1c1ccc(NC(=O)C2CNc3ccccc3O2)c(C(F)(F)F)c1 (some centres unmarked) [Compound 89] |
| 25 to 100 | < 5 | CC(C)(C)c1cc(C(C)(C)C)c(NC(=O)C2CNc3ccccc3O2)cc1O (centres unmarked) [Compound 90] |
| 25 to 100 | < 5 | Cc1ccc(NC(=O)C2CNc3cc(OC(F)(F)F)ccc3O2)c(C#CCN(C)C)n1 (centres unmarked) [Compound 91] |
| 25 to 100 | < 5 | CC(C)(C)c1ccc(NC(=O)C2CNc3ccccc3O2)cc1F (centres unmarked) [Compound 92] |
| 25 to 100 | < 5 | O=C(Nc1cc(O)c(C2CCCC2)cc1C(F)(F)F)[C@H]1CNc2cc(F)ccc2O1 [Compound 93] |
| 25 to 100 | < 5 | COc1cc(NC(=O)C2CNc3ccc(F)cc3O2)ccc1C(C)(C)C (centres unmarked) [Compound 94] |
| > 100 | < 5 | COc1cc(NC(=O)C2CNc3cc(OC(F)(F)F)ccc3O2)c(C#CCN(C)C)cc1C1CCCC1 (centres unmarked) [Compound 95] |
| 25 to 100 | < 5 | Cc1cc(C#CC(=O)O)c(NC(=O)C2CNc3cc(OC(F)(F)F)ccc3O2)cc1O (centres unmarked) [Compound 96] |
| 25 to 100 | < 5 | Cc1ccc2c(c1)NCC(C(=O)Nc1cc(O)c(C3(C)CCCCC3)cc1F)O2 (centres unmarked) [Compound 97] |
| 25 to 100 | < 5 | CNCC#Cc1cc(C2CCCC2)c(O)cc1NC(=O)C1CNc2cc(OC(F)(F)F)ccc2O1 (centres unmarked) [Compound 98, N-(4-cyclopentyl-5-hydroxy-2-(3-(methylamino)prop-1-ynyl)phenyl)-6-(trifluoromethoxy)-3,4-dihydro-2H-benzo[b][1,4]oxazine-2-carboxamide] |
| 25 to 100 | < 5 | CC1(c2cc(F)c(NC(=O)C3CNc4ccccc4O3)cc2O)CCCCC1 (centres unmarked) [Compound 99] |
| > 100 | < 5 | Cc1ccc(NC(=O)C2CNc3cc(OC(F)(F)F)ccc3O2)c(C#CCN2CCOCC2)c1 (centres unmarked) [Compound 100, N-(4-methyl-2-(3-morpholinoprop-1-ynyl)phenyl)-6-(trifluoromethoxy)-3,4-dihydro-2H-benzo[b][1,4]oxazine-2-carboxamide] |
| < 25 | 5 to 20 | Cc1ccc(NC(=O)C2CNc3cc(OC(F)(F)F)ccc3O2)c(C#CCN2CCC(N)CC2)c1 (centres unmarked) [Compound 101] |

| SMILES | Emax [%] | EC50 [µM] |
| --- | --- | --- |
| Cc1cc(N2C3CCC2CC3)ncc1NC(=O)C1CNc2ccc(F)cc2O1 (centres unmarked) [Compound 56] | 25 to 100 | 5 to 20 |

From patent US8999976B2, “Modulators of cystic fibrosis transmembrane conductance regulator” (Vertex Pharmaceuticals Incorporated, priority 2008, dated 2015)
